This note sets out measurements from PubChem BioAssay AID256 (DTP/NCI, 2004).

“And” between values parts separate entries of the source, which are not always exact repeats. Identical values can stand only once. Toxic doses and inconclusive results are not listed.

In the assay the test system is CD2F1 mice, L1210 leukemia ip, survival T/C. Nature of the assay: NCI In Vivo Anticancer Drug Screen. Data for tumor model L1210 Leukemia (intraperitoneal) in CD2F1 (CDF1) mice. The note with it: higher = longer survival. The method in brief: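 Ratio T/C, where T is the treated-group value and C the vehicle-dosed control value, from mice implanted with a transplantable tumor.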

Setting [1] is: endpoint: mean survival time, dose: 25.0 mg/kg/injection, schedule: Q04DX003 (ip), vehicle: saline.
Setting [2] is: endpoint: mean survival time, dose: 50.0 mg/kg/injection, schedule: Q04DX003 (ip), vehicle: saline.
Where [3] appears, read: endpoint: mean survival time, dose: 100.0 mg/kg/injection, schedule: Q01DX009 (ip), vehicle: saline with Tween-80.
The mark [4] stands for this setting: endpoint: mean survival time, dose: 200.0 mg/kg/injection, schedule: Q01DX009 (ip), vehicle: saline with Tween-80.

Take `CN=C1N[N+]2=CCCCC2S1` (configuration not stated): the T/C by setting is: under setting [1], 94 % of control; under setting [2], 94 % of control.
Turning to `C/[N+]([O-])=C/C1OC(n2ccc(=O)[nH]c2=O)C2OC(C)(C)OC12` (configuration not stated), the T/C is 106 % of control (endpoint: median survival time, dose: 21.38 mg/kg/injection, schedule: Q01DX005 (ip), vehicle: saline); 100 % of control (endpoint: median survival time, dose: 42.75 mg/kg/injection, schedule: Q01DX005 (ip), vehicle: saline); 100 % of control (endpoint: median survival time, dose: 85.5 mg/kg/injection, schedule: Q01DX005 (ip), vehicle: saline); 107 % of control (endpoint: median survival time, dose: 171.0 mg/kg/injection, schedule: Q01DX005 (ip), vehicle: saline).
For `C#CCOCCC(C(=O)OCC)C(=O)OCC`, the T/C runs as follows: (endpoint: mean survival time, dose: 100.0 mg/kg/injection, schedule: Q04DX003 (ip), vehicle: acetone) 108 % of control; (endpoint: mean survival time, dose: 200.0 mg/kg/injection, schedule: Q04DX003 (ip), vehicle: acetone) 103 % of control; (endpoint: mean survival time, dose: 400.0 mg/kg/injection, schedule: Q04DX003 (ip), vehicle: acetone) 110 % of control.
As for `[Cl][Pt][Cl].[NH-]C(CC(N)=O)C(=O)O` (configuration not stated), the T/C is 109 % of control (endpoint: median survival time, dose: 3.12 mg/kg/injection, schedule: Q04DX003 (ip), vehicle: water); 108 % of control (endpoint: median survival time, dose: 6.25 mg/kg/injection, schedule: Q04DX003 (ip), vehicle: water); 101 % of control (endpoint: median survival time, dose: 12.5 mg/kg/injection, schedule: Q04DX003 (ip), vehicle: water); 106 % of control (endpoint: median survival time, dose: 25.0 mg/kg/injection, schedule: Q04DX003 (ip), vehicle: water); 118 % of control (endpoint: median survival time, dose: 50.0 mg/kg/injection, schedule: Q04DX003 (ip), vehicle: water); 110 % of control (endpoint: median survival time, dose: 100.0 mg/kg/injection, schedule: Q04DX003 (ip), vehicle: water).
Consider `[Co].c1ccc2c3[n-]c(c2c1)/N=c1\[n-]/c(c2ccccc12)=N\c1[n-]c(c2ccccc12)/N=c1\[n-]/c(c2ccccc12)=N\3`, for which the T/C was 90 % of control (endpoint: mean survival time, dose: 25.0 mg/kg/injection, schedule: Q04DX002 (ip), vehicle: saline with Tween-80); 93 % of control (endpoint: mean survival time, dose: 50.0 mg/kg/injection, schedule: Q04DX002 (ip), vehicle: saline with Tween-80); 90 % of control (endpoint: mean survival time, dose: 100.0 mg/kg/injection, schedule: Q04DX002 (ip), vehicle: saline with Tween-80).
In the case of `CN(CCC#N)C1=CCCC1`, the T/C reads like this: (endpoint: mean survival time, dose: 100.0 mg/kg/injection, schedule: Q01DX009 (ip), vehicle: saline) 102 % of control; (endpoint: mean survival time, dose: 200.0 mg/kg/injection, schedule: Q01DX009 (ip), vehicle: saline) 112 % of control; (endpoint: mean survival time, dose: 400.0 mg/kg/injection, schedule: Q01DX009 (ip), vehicle: saline) 105 % of control.
As for `CC(=O)C1CC(=O)c2c(O)ccc(O)c2C1` (configuration not stated), the T/C runs as follows: (endpoint: mean survival time, dose: 12.5 mg/kg/injection, schedule: Q01DX009 (ip), vehicle: water) 95 % of control; (endpoint: mean survival time, dose: 25.0 mg/kg/injection, schedule: Q01DX009 (ip), vehicle: water) 101 % of control; (endpoint: mean survival time, dose: 50.0 mg/kg/injection, schedule: Q01DX009 (ip), vehicle: water) 95 % of control; (endpoint: mean survival time, dose: 100.0 mg/kg/injection, schedule: Q01DX009 (ip), vehicle: water) 100 % of control; (endpoint: mean survival time, dose: 200.0 mg/kg/injection, schedule: Q01DX009 (ip), vehicle: water) 100 % of control.
Regarding `CCN1CCSC1=S`, the T/C by setting is: (endpoint: mean survival time, dose: 75.0 mg/kg/injection, schedule: Q01DX001 (ip), vehicle: other) 102 % of control; (endpoint: mean survival time, dose: 150.0 mg/kg/injection, schedule: Q01DX001 (ip), vehicle: other) 100 % of control; (endpoint: mean survival time, dose: 300.0 mg/kg/injection, schedule: Q01DX001 (ip), vehicle: other) 103 % of control.
For `CCCCCC(C)N` (configuration not stated), the T/C (endpoint: mean survival time, dose: 12.5 mg/kg/injection, schedule: Q01DX009 (ip), vehicle: saline sonified) was 101 % of control; the T/C (endpoint: mean survival time, dose: 12.5 mg/kg/injection, schedule: Q04DX003 (ip), vehicle: saline) was 104 % of control; the T/C (endpoint: mean survival time, dose: 25.0 mg/kg/injection, schedule: Q01DX009 (ip), vehicle: saline sonified) is 98 % of control; the T/C under setting [1] is 103 % of control; the T/C (endpoint: mean survival time, dose: 50.0 mg/kg/injection, schedule: Q01DX009 (ip), vehicle: saline sonified) is 107 % of control; the T/C under setting [2] was 97 % of control.
For the molecule `CN(C)C(=S)SCc1ccc(Cl)cc1`, the T/C by setting is: (endpoint: mean survival time, dose: 100.0 mg/kg/injection, schedule: Q04DX003 (ip), vehicle: other) 93 % of control; (endpoint: mean survival time, dose: 200.0 mg/kg/injection, schedule: Q04DX003 (ip), vehicle: other) 102 % of control; (endpoint: mean survival time, dose: 400.0 mg/kg/injection, schedule: Q04DX003 (ip), vehicle: other) 100 % of control.
As for `O=C(CNC(=O)Nc1cccc([N+](=O)[O-])c1)NNC(=O)Nc1ccc(Cl)c([N+](=O)[O-])c1`, the T/C under setting [3] was 91 % of control and the T/C under setting [4] is 87 % of control.
On to `Nc1ncn(C2CC(O)C(CO)O2)c(=O)n1` (configuration not stated), for which the T/C is 160 % of control and 175 % of control (endpoint: mean survival time, dose: 0.12 mg/kg/injection, schedule: Q01DX009 (ip), vehicle: saline); 195 % of control (endpoint: mean survival time, dose: 0.25 mg/kg/injection, schedule: Q01DX009 (ip), vehicle: Klucel (hydroxypropylcellulose) (HPC)); 193 % of control and 221 % of control (endpoint: mean survival time, dose: 0.25 mg/kg/injection, schedule: Q01DX009 (ip), vehicle: saline); 219 % of control (endpoint: mean survival time, dose: 0.5 mg/kg/injection, schedule: Q01DX009 (ip), vehicle: Klucel (hydroxypropylcellulose) (HPC)); 229 % of control and 258 % of control (endpoint: mean survival time, dose: 0.5 mg/kg/injection, schedule: Q01DX009 (ip), vehicle: saline); 227 % of control (endpoint: mean survival time, dose: 1.0 mg/kg/injection, schedule: Q01DX009 (ip), vehicle: Klucel (hydroxypropylcellulose) (HPC)). Also, the T/C (endpoint: mean survival time, dose: 1.0 mg/kg/injection, schedule: Q01DX009 (ip), vehicle: saline) was 258 % of control and 296 % of control; the T/C (endpoint: mean survival time, dose: 4.0 mg/kg/injection, schedule: Q01DX009 (ip), vehicle: Klucel (hydroxypropylcellulose) (HPC)) was 113 % of control; the T/C (endpoint: mean survival time, dose: 4.0 mg/kg/injection, schedule: Q01DX009 (ip), vehicle: saline) is 121 % of control; the T/C (endpoint: mean survival time, dose: 8.0 mg/kg/injection, schedule: Q01DX009 (ip), vehicle: Klucel (hydroxypropylcellulose) (HPC)) was 98 % of control; the T/C (endpoint: median survival time, dose: 0.25 mg/kg/injection, schedule: Q01DX009 (ip), vehicle: saline) is 211 % of control; the T/C (endpoint: median survival time, dose: 0.5 mg/kg/injection, schedule: Q01DX009 (ip), vehicle: saline) is 247 % of control. The T/C by setting is: (endpoint: median survival time, dose: 1.0 mg/kg/injection, schedule: Q01DX009 (ip), vehicle: saline) 297 % of control; (endpoint: median survival time, dose: 8.0 mg/kg/injection, schedule: Q01DX009 (ip), vehicle: saline) 117 % of control.
As to `C[S+](C)CC(=O)c1ccccc1O`, the T/C is, setting by setting: (endpoint: mean survival time, dose: 100.0 mg/kg/injection, schedule: Q04DX003 (ip), vehicle: saline with Tween-80) 103 % of control; (endpoint: mean survival time, dose: 200.0 mg/kg/injection, schedule: Q04DX003 (ip), vehicle: saline with Tween-80) 99 % of control; (endpoint: mean survival time, dose: 400.0 mg/kg/injection, schedule: Q04DX003 (ip), vehicle: saline with Tween-80) 100 % of control.
Consider `COc1cc(/C(C)=N\O)ccc1O`, for which the T/C reads like this: (endpoint: mean survival time, dose: 100.0 mg/kg/injection, schedule: Q01DX001 (ip), vehicle: other) 102 % of control; (endpoint: mean survival time, dose: 100.0 mg/kg/injection, schedule: Q01DX009 (ip), vehicle: other) 107 % of control; (endpoint: mean survival time, dose: 200.0 mg/kg/injection, schedule: Q01DX001 (ip), vehicle: other) 108 % of control; (endpoint: mean survival time, dose: 200.0 mg/kg/injection, schedule: Q01DX009 (ip), vehicle: other) 102 % of control; (endpoint: mean survival time, dose: 400.0 mg/kg/injection, schedule: Q01DX001 (ip), vehicle: other) 98 % of control; (endpoint: mean survival time, dose: 400.0 mg/kg/injection, schedule: Q01DX009 (ip), vehicle: other) 90 % of control.
In the case of `Cc1c(C)c(C(=O)O)c(C)c(C)c1C(=O)O`, the T/C (endpoint: mean survival time, dose: 100.0 mg/kg/injection, schedule: Q04DX003 (ip), vehicle: saline) was 102 % of control; the T/C (endpoint: mean survival time, dose: 200.0 mg/kg/injection, schedule: Q04DX003 (ip), vehicle: saline) was 100 % of control; the T/C (endpoint: mean survival time, dose: 400.0 mg/kg/injection, schedule: Q04DX003 (ip), vehicle: saline) is 96 % of control.
Consider `CN(C)c1ccc(C=C(Cl)Cl)cc1`, for which the T/C is 87 % of control (endpoint: mean survival time, dose: 100.0 mg/kg/injection, schedule: Q04DX002 (ip), vehicle: other); 91 % of control (endpoint: mean survival time, dose: 200.0 mg/kg/injection, schedule: Q04DX002 (ip), vehicle: other); 93 % of control (endpoint: mean survival time, dose: 400.0 mg/kg/injection, schedule: Q04DX002 (ip), vehicle: other).
`N#C/C(=C1C=C/C(=N/O)C(Br)=C/1)c1ccccc1`: the T/C was 108 % of control under setting [3]; 96 % of control under setting [4]; 95 % of control (endpoint: mean survival time, dose: 400.0 mg/kg/injection, schedule: Q01DX009 (ip), vehicle: saline with Tween-80).
